Measured values from paper PMC8036666, “Biological and Physico-Chemical Characteristics of Arginine-Rich Peptide Gemini Surfactants with Lysine and Cystine Spacers” (International Journal of Molecular Sciences, 2021).
Values after ≈ are worked out from the molar mass of the structure shown. Like-named read-outs stand apart in the source and are kept apart here. Where a SMILES comes first, the peptide text is derived from it. Bridges are numbered along the chain shown (N, C = ends). Roman numbers before positions name the chains, in order. [ ]: non-standard residue; d: D form. The star is where a group is joined. Myristoyl = CCCCCCCCCCCCCC(=O)*; Nle = CCCC[C@H](N)C(=O)O; Octanoyl = CCCCCCCC(=O)*

How the values were obtained:
[1] = system: Staphylococcus aureus ATCC 33591
Protocol: The Acinetobacter baumannii ATCC BAA-1605, Enterococcus faecium ATCC 700221, Escherichia coli ML-35 ATCC 43827, Klebsiella aerogenes ATCC 13048, Klebsiella pneumoniae ATCC 700603, Pseudomonas aeruginosa ATCC 9027, Staphylococcus aureus ATCC 25923, Staphylococcus aureus ATCC 33591, Candida albicans ATCC 10231, Candida glabrata ATCC 15126, strains were acquired from the American Type Culture Collection (ATCC). All the strains were stored at −80 °C in Roti-Store cryo vials and before the tests were transferred into fresh Mueller–Hinton broth (MHB, Biocorp, Warsaw, […], Steinheim, Germany) for fungi and incubated for 24 h at 37 °C. Then, the cultures were seeded on the Mueller–Hinton agar (BioMaxima, Lublin, Poland) or Sabouraud dextrose agar (SDA, BioMaxima, Lublin, Poland) plates, respectively, and incubated as just mentioned. These agar cultures were used for further microbiological assays. […]
The MICs were determined by the broth microdilution method according to the Clinical and Laboratory Standard Institute guidelines. […] The experiments were conducted on 96-well microtiter polystyrene plates (Kartell, Noviglio, Italy). The growth was assessed visually after incubation, and the MIC was assumed as the lowest peptide concentration at which a noticeable growth of microorganisms was inhibited. All experiments were conducted in triplicate.

[2] = system: Candida albicans ATCC 10231; type: cell-based
Protocol: (§1) Biofilm is associated with life-threating infections due to its outstanding resistance to antibiotics. In this study, the antibiofilm characteristics of USCLs and gemini surfactants were evaluated.
(§2) The MBECs were determined as described previously using 96-well polystyrene flat-bottom plates. For this purpose, 24 h cultures of microorganisms were diluted to obtain a final density of 5.0 × 10^5 CFU/mL and 2.0 × 10^5 CFU/mL of bacteria and fungi, respectively. Microorganisms were diluted in MHB or RPMI-1640 with 2% D-glucose (bacteria and fungi, respectively). Briefly, 100 µL of cell suspension was added into the test plates. After 24 h of incubation at 37 °C, the wells were rinsed three times with a PBS (pH 7.4) to remove non-adherent cells. Subsequently, 100 μL of the test compounds in a concentration range (1–512 μg/mL) were added to each well. After 24 h of incubation at 37 °C, 20 μL of a cell viability reagent was added (resazurin, 4 g/L; Sigma Aldrich, St. Louis, MO, USA). The MBEC was read after 1 h. The determined values were recorded as the lowest concentration at which the reduction of resazurin (from blue to pink) was lower or equal to 10 ± 0.5% as compared to the positive (100%) and negative (0%) controls. The reduction was monitored by measuring absorbance at 570 nm (reduced) and 600 nm (oxidized) using a microplate spectrophotometer (Multiskan GO Microplate Spectrophotometer, Thermo Fisher Scientific, Vantaa, Finland). All experiments were conducted in triplicate.

[3] = system: Klebsiella aerogenes ATCC 13048; type: cell-based
Protocol: as §1, §2

[4] = system: Klebsiella pneumoniae ATCC 700603; type: cell-based
Protocol: as §1, §2

[5] = system: Enterococcus faecium ATCC 700221; type: cell-based
Protocol: as §1, §2

[6] = system: Acinetobacter baumannii ATCC BAA 1605; type: cell-based
Protocol: as §1, §2

[7] = system: Candida glabrata ATCC 15126; type: cell-based
Protocol: as §1, §2

[8] = system: Staphylococcus aureus ATCC 25923; type: cell-based
Protocol: as §1, §2

[9] = system: Pseudomonas aeruginosa ATCC 9027; type: cell-based
Protocol: as §1, §2

[10] = system: Staphylococcus aureus ATCC 33591; type: cell-based
Protocol: as §1, §2

C. glabrata ATCC 15126 = system: C. glabrata ATCC 15126
Protocol: (§3) The Acinetobacter baumannii ATCC BAA-1605, Enterococcus faecium ATCC 700221, Escherichia coli ML-35 ATCC 43827, Klebsiella aerogenes ATCC 13048, Klebsiella pneumoniae ATCC 700603, Pseudomonas aeruginosa ATCC 9027, Staphylococcus aureus ATCC 25923, Staphylococcus aureus ATCC 33591, Candida albicans ATCC 10231, Candida glabrata ATCC 15126, strains were acquired from the American Type Culture Collection (ATCC). All the strains were stored at −80 °C in Roti-Store cryo vials and before the tests were transferred into fresh Mueller–Hinton broth (MHB, Biocorp, Warsaw, Poland) for bacteria or RPMI-1640 (Sigma-Aldrich, Steinheim, Germany) for fungi and incubated for 24 h at 37 °C. Then, the cultures were seeded on the Mueller–Hinton agar (BioMaxima, Lublin, Poland) or Sabouraud dextrose agar (SDA, BioMaxima, Lublin, Poland) plates, respectively, and incubated as just mentioned. These agar cultures were used for further microbiological assays. Cell densities for all assays were adjusted spectrophotometrically (Multiskan GO Microplate Spectrophotometer, Thermo Fisher Scientific, Vantaa, Finland) at 600 and 530 nm for bacteria and fungi, respectively.
(§4) The MICs were determined by the broth microdilution method according to the Clinical and Laboratory Standard Institute guidelines. For this purpose, initial inoculums of bacteria (5 × 10^5 CFU/mL) in MHB and yeasts (2 × 10^3 CFU/mL) in RPMI-1640 with 2% D-glucose were exposed to the ranging concentration of lipopeptides (0.5–256 μg/mL) and incubated at 37 °C for 18 h and 24 h, respectively. The experiments were conducted on 96-well microtiter polystyrene plates (Kartell, Noviglio, Italy). The growth was assessed visually after incubation, and the MIC was assumed as the lowest peptide concentration at which a noticeable growth of microorganisms was inhibited. All experiments were conducted in triplicate.

C. albicans ATCC 10231 = system: C. albicans ATCC 10231
Protocol: as §3, §4

| MIC Staphylococcus aureus ATCC 33591 ([1]; ATCC 33591, 24 h) [µg/mL] | MIC C. glabrata ATCC 15126 (C. glabrata ATCC 15126; ATCC 15126, 24 h) [µg/mL] | MIC C. albicans ATCC 10231 (C. albicans ATCC 10231; ATCC 10231, 24 h) [µg/mL] | Structure (SMILES) | MBEC Candida albicans ATCC 10231 ([2]; ATCC 10231, 24 h) [µg/mL] | MBEC Klebsiella aerogenes ATCC 13048 ([3]; ATCC 13048, 24 h) [µg/mL] | MBEC Klebsiella pneumoniae ATCC 700603 ([4]; ATCC 700603, 24 h) [µg/mL] | MBEC Enterococcus faecium ATCC 700221 ([5]; ATCC 700221, 24 h) [µg/mL] | MBEC Acinetobacter baumannii ATCC BAA 1605 ([6]; ATCC BAA 1605, 24 h) [µg/mL] | MBEC Candida glabrata ATCC 15126 ([7]; ATCC 15126, 24 h) [µg/mL] | MBEC Staphylococcus aureus ATCC 25923 ([8]; ATCC 25923, 24 h) [µg/mL] | MBEC Pseudomonas aeruginosa ATCC 9027 ([9]; ATCC 9027, 24 h) [µg/mL] | MBEC Staphylococcus aureus ATCC 33591 ([10]; ATCC 33591, 24 h) [µg/mL] | also measured |
| --- | --- | --- | --- | --- | --- | --- | --- | --- | --- | --- | --- | --- | --- |
| 32 (≈ 24.9 µM) | 1 (≈ 0.779 µM) | 2 (≈ 1.56 µM) | CCCCCCCCCCCCCC(=O)N[C@@H](CCCNC(=N)N)C(=O)N[C@@H](CCCNC(=N)N)C(=O)N[C@@H](CSSC[C@H](NC(=O)[C@H](CCCNC(=N)N)NC(=O)[C@H](CCCNC(=N)N)NC(=O)CCCCCCCCCCCCC)C(N)=O)C(N)=O [Compound C4] (I: Myristoyl-Arg-Arg-Cys-NH2 / II: Myristoyl-Arg-Arg-Cys-NH2; disulfide I:3-II:3) | 16 | 512 | 512 | 64 | 512 | 64 | 512 | >512 | 128 |  |
|  |  |  | CCCCCCCC(=O)N[C@@H](Cc1ccccc1)C(=O)N[C@@H](CCCNC(=N)N)C(=O)N[C@@H](CCCNC(=N)N)C(=O)N[C@@H](CSSC[C@H](NC(=O)[C@H](CCCNC(=N)N)NC(=O)[C@H](CCCNC(=N)N)NC(=O)[C@H](Cc1ccccc1)NC(=O)CCCCCCC)C(N)=O)C(N)=O [Compound C5] (I: Octanoyl-FRRC-NH2 / II: Octanoyl-FRRC-NH2; disulfide I:4-II:4) |  |  |  |  |  |  |  |  |  | MIC Staphylococcus aureus ATCC 33591 ([1]; planktonic culture): 2 µg/mL (≈ 1.42 µM); MBEC Candida albicans ATCC 10231 ([2]; 24 h biofilm on polystyrene): 128 µg/mL; MBEC Klebsiella aerogenes ATCC 13048 ([3]; 24 h biofilm on polystyrene): 256 µg/mL; MBEC Klebsiella pneumoniae ATCC 700603 ([4]; 24 h biofilm on polystyrene): 256 µg/mL; MBEC Enterococcus faecium ATCC 700221 ([5]; 24 h biofilm on polystyrene): 8 µg/mL; MBEC Acinetobacter baumannii ATCC BAA 1605 ([6]; 24 h biofilm on polystyrene): 512 µg/mL; MBEC Candida glabrata ATCC 15126 ([7]; 24 h biofilm on polystyrene): 256 µg/mL; MBEC Staphylococcus aureus ATCC 25923 ([8]; 24 h biofilm on polystyrene): 64 µg/mL; MBEC Pseudomonas aeruginosa ATCC 9027 ([9]; 24 h biofilm on polystyrene): 512 µg/mL; MBEC Staphylococcus aureus ATCC 33591 ([10]; 24 h biofilm on polystyrene): 8 µg/mL; MIC C. glabrata ATCC 15126 (C. glabrata ATCC 15126; planktonic culture): 8 µg/mL (≈ 5.67 µM); MIC C. albicans ATCC 10231 (C. albicans ATCC 10231; planktonic culture): 8 µg/mL (≈ 5.67 µM) |
| 2 (≈ 1.49 µM) | 16 (≈ 11.9 µM) | 16 (≈ 11.9 µM) | CCCCCCCC(=O)N[C@@H](CCCC)C(=O)N[C@@H](CCCNC(=N)N)C(=O)N[C@@H](CCCNC(=N)N)C(=O)N[C@@H](CSSC[C@H](NC(=O)[C@H](CCCNC(=N)N)NC(=O)[C@H](CCCNC(=N)N)NC(=O)[C@H](CCCC)NC(=O)CCCCCCC)C(N)=O)C(N)=O [Compound C6] (I: Octanoyl-[Nle]RRC-NH2 / II: Octanoyl-[Nle]RRC-NH2; disulfide I:4-II:4) | 256 | 256 | 256 | 8 | 512 | 512 | 32 | 512 | 8 |  |

| Structure (SMILES) | MIC Staphylococcus aureus ATCC 33591 ([1]; ATCC 33591, 24 h) [µg/mL] | MIC C. glabrata ATCC 15126 (C. glabrata ATCC 15126; ATCC 15126, 24 h) [µg/mL] | MIC C. albicans ATCC 10231 (C. albicans ATCC 10231; ATCC 10231, 24 h) [µg/mL] | MBEC Candida albicans ATCC 10231 ([2]; ATCC 10231, 24 h) [µg/mL] | MBEC Klebsiella aerogenes ATCC 13048 ([3]; ATCC 13048, 24 h) [µg/mL] | MBEC Klebsiella pneumoniae ATCC 700603 ([4]; ATCC 700603, 24 h) [µg/mL] | MBEC Enterococcus faecium ATCC 700221 ([5]; ATCC 700221, 24 h) [µg/mL] | MBEC Acinetobacter baumannii ATCC BAA 1605 ([6]; ATCC BAA 1605, 24 h) [µg/mL] | MBEC Candida glabrata ATCC 15126 ([7]; ATCC 15126, 24 h) [µg/mL] | MBEC Staphylococcus aureus ATCC 25923 ([8]; ATCC 25923, 24 h) [µg/mL] | MBEC Pseudomonas aeruginosa ATCC 9027 ([9]; ATCC 9027, 24 h) [µg/mL] | MBEC Staphylococcus aureus ATCC 33591 ([10]; ATCC 33591, 24 h) [µg/mL] | also measured |
| --- | --- | --- | --- | --- | --- | --- | --- | --- | --- | --- | --- | --- | --- |
| CCCCCCC(CCCC)C(=O)N[C@@H](CCCNC(=N)N)C(=O)N[C@@H](CCCNC(=N)N)C(=O)N[C@@H](CSSC[C@H](NC(=O)[C@H](CCCNC(=N)N)NC(=O)[C@H](CCCNC(=N)N)NC(=O)C(CCCC)CCCCCC)C(N)=O)C(N)=O (stereo partly drawn) [Compound C7] | 2 (≈ 1.63 µM) | 16 (≈ 13 µM) | 16 (≈ 13 µM) | 64 | 128 | 256 | 4 | 256 | 128 | 32 | 512 | 8 |  |
